Like-named read-outs stand apart in the source and are kept apart here.
Tested on: DU145-TXR cells
Assay: MTT viability assay, reversal of MDR (re-sensitization to paclitaxel) in P-gp overexpressing DU145-TXR cells
Type: cell-based, human
Settings: for % Survival, mean / % Survival: 15 µM compound + 500 nM PTX (Paclitaxel, Taxol); for % Survival, mean / % Survival / viability at 15 µM: DU145-TXR; for Re-sensitization of DU145-TXR cells to PTX (reversal of MDR): 15 µM compound with or without 500 nM PTX, 48 h, MTT, re-sensitization = 30% or greater decrease in cell viability; for viability at 15 µM: Homo sapiens, 15 µM Compound Alone
Experimental: The chemotherapeutic sensitive DU145 human prostate cancer cells and the multidrug resistant sub-line, DU145-TXR, were generous gifts from Dr. Evan Keller (University of Michigan, Ann Arbor, MI). The MDR, P-gp overexpressing DU145-TXR cells were maintained under positive selection pressure by supplementing complete medium with 10 nM paclitaxel (Acros Organics, NJ). In addition to the aforementioned cell lines, the chemotherapeutic sensitive A2780 ovarian cancer cells (93112519, Sigma) and the multidrug resistant A2780-ADR (93112520, Sigma) were maintained in complete RPMI media consisting of RPMI-1640 with L-glutamine, 10% fetal bovine serum (FBS; Corning), 100 U/mL penicillin and 100 μg/mL streptomycin in a humidified incubator at 37 °C and 5% CO2. The MDR, P-gp overexpressing A2780-ADR cell line was maintained under positive selection pressure by supplementing complete medium with 100 nM doxorubicin (Fisher Scientific, NJ). The non-cancerous HFL1 (human lung fibroblast) cell line cell line was a generous gift from Dr. Robert Harrod (Southern Methodist University, Dallas, TX) and was maintained in complete F12K media consisting of F12K with 10% fetal bovine serum, 100 U/mL penicillin, and 100 µg/mL streptomycin (Gibco). Flasks and 96 well plates that were used with the non-cancerous line HFL1 were pre-treated with 0.1 mg/ml Collagen Type 1 (Gibco) and rinsed with PBS (Fisher).
Culture of the DU145, DU145-TXR, and HFL1 cell lines was performed as described in [8]. Culture of the A2780 and A2780-ADR cell lines was performed as described in [9]. MTT assays were performed as described in [8] with minor modifications. LC-MS/MS accumulation assays were performed as described in {Nanayakkara, 2018 #173} [9] with some modifications. […] The inhibitor concentration was lowered to 15 µM here, as the goal of the study was to identify compounds that were effective in reversing MDR at low concentrations, and to determine if the expanded virtual-assisted methods improved on our first-draft attempt. Compounds 56–98 were pre-screened using Resazurin cell viability assays: cells were incubated with 15 µM compound with or without 500 nM PTX for 48 hours, after which cell survival was assessed similar to [39]. Data represent the mean of two separate experiments, with n = 3 samples per experiment (n = 6 total) (S4 Table). The top performing compounds from this initial screen were re-tested with MTT viability assays against DU145-TXR cells, as described below.
MTT assays measure the reduction of yellow, water soluble 3-(4,5-dimethylthiazol-2-yl)-2,5-diphenyltetrazolium bromide (MTT) to blue, insoluble formazan crystals by cellular reductase processes in living cells. Cells were trypsinized from monolayers and seeded in complete medium in 96 well plates. Cancerous cell lines (DU145, DU145-TXR, A2780, A2780-ADR) were seeded at 3,000 cells per well in complete RPMI medium. The non-cancerous HFL1 line was seeded at 4,000 cells per well in complete F12K medium, in collagen-treated plates (Collagen Type 1, Gibco). Cells were incubated with experimental compounds for 48 hours at 37 °C and 5% CO2 in a humidified incubator. At 48 hours, MTT was added (20 µL/well of 5 mg/mL MTT in PBS) to each well. After incubation for 4 hours, the media was removed, and the formazan crystals were dissolved in 100 µL DMSO per well. Plates containing the semi-adherent A2780 or A2780-ADR lines were spun at 1400 rpm for 3 minutes prior to aspiration of media, and the addition of DMSO. Plates were shaken for 10 minutes at 500 rpm on an Orbital shaker (LabDoctor from MidSci, St Louis, MO). The absorbance was measured at 570 nm using a Bio-Tek Cytation 5 (Bio-Tek, Winooski, VT). The measured absorbance value was correlated with the number of metabolically active cells in that well, corrected for absorbance of media. […]

[1] = mean of 8 samples, read-out: % Survival, mean
[2] = trial 1, sample 1, read-out: % Survival
[3] = trial 1, sample 2, read-out: % Survival
[4] = trial 1, sample 3, read-out: % Survival
[5] = trial 1, sample 4, read-out: % Survival
[6] = trial 2, sample 1, read-out: % Survival
[7] = trial 2, sample 2, read-out: % Survival
[8] = trial 2, sample 3, read-out: % Survival
[9] = trial 2, sample 4, read-out: % Survival

## Cn1cnnc1SCc1c(C(=O)O)nnn1-c1nonc1N [Compound 59, Cn1cnnc1SCc1c(nnn1-c1nonc1N)C(O)=O]
Mean of 8 samples
  % Survival, mean: 114.8%
Trial 1, sample 1
  % Survival: 116%
Trial 1, sample 2
  % Survival: 115%
Trial 1, sample 3
  % Survival: 139%
Trial 1, sample 4
  % Survival: 150%
Trial 2, sample 1
  % Survival: 95%
Trial 2, sample 2
  % Survival: 97%
Trial 2, sample 3
  % Survival: 95%
Trial 2, sample 4
  % Survival: 111%
  Re-sensitization of DU145-TXR cells to PTX (reversal of MDR): did not reverse MDR in DU145-TXR cells
[1]
  viability at 15 µM: 107%
[2]
  viability at 15 µM: 132%
[3]
  viability at 15 µM: 105%
[4]
  viability at 15 µM: 116%
[5]
  viability at 15 µM: 103%
[6]
  viability at 15 µM: 103%
[7]
  viability at 15 µM: 102%
[8]
  viability at 15 µM: 99%
[9]
  viability at 15 µM: 99%

## Nc1nonc1-n1nnc(C(=O)N/N=C/c2c3ccccc3cc3ccccc23)c1COc1ccc(F)cc1 [Compound 60, Nc1nonc1-n1nnc(C(=O)N\N=C\c2c3ccccc3cc3ccccc23)c1COc1ccc(F)cc1]
Mean of 8 samples
  % Survival, mean: 92.8%
Trial 1, sample 1
  % Survival: 84%
Trial 1, sample 2
  % Survival: 102%
Trial 1, sample 3
  % Survival: 83%
Trial 1, sample 4
  % Survival: 120%
Trial 2, sample 1
  % Survival: 83%
Trial 2, sample 2
  % Survival: 92%
Trial 2, sample 3
  % Survival: 89%
Trial 2, sample 4
  % Survival: 89%
[1]
  viability at 15 µM: 93.6%
[2]
  viability at 15 µM: 100%
[3]
  viability at 15 µM: 103%
[4]
  viability at 15 µM: 90%
[5]
  viability at 15 µM: 96%
[6]
  viability at 15 µM: 93%
[7]
  viability at 15 µM: 88%
[8]
  viability at 15 µM: 95%
[9]
  viability at 15 µM: 83%

## CCN1CCN(Cc2c(C(=O)N/N=C3/C(=O)N(C)c4ccccc43)nnn2-c2nonc2N)CC1 [Compound 61, CCN1CCN(Cc2c(nnn2-c2nonc2N)C(=O)N\N=C2\C(=O)N(C)c3ccccc23)CC1]
Mean of 8 samples
  % Survival, mean: 51.6%
Trial 1, sample 1
  % Survival: 62%
Trial 1, sample 2
  % Survival: 67%
Trial 1, sample 3
  % Survival: 64%
Trial 1, sample 4
  % Survival: 77%
Trial 2, sample 1
  % Survival: 33%
Trial 2, sample 2
  % Survival: 35%
Trial 2, sample 3
  % Survival: 31%
Trial 2, sample 4
  % Survival: 44%
  Re-sensitization of DU145-TXR cells to PTX (reversal of MDR): re-sensitized DU145-TXR cells to PTX
[1]
  viability at 15 µM: 99.3%
[2]
  viability at 15 µM: 118%
[3]
  viability at 15 µM: 117%
[4]
  viability at 15 µM: 119%
[5]
  viability at 15 µM: 123%
[6]
  viability at 15 µM: 93%
[7]
  viability at 15 µM: 75%
[8]
  viability at 15 µM: 77%
[9]
  viability at 15 µM: 72%

## O=C(c1cc2ccccc2[nH]1)N1CCN(S(=O)(=O)c2cccc3nonc23)CC1 [Compound 66, O=C(N1CCN(CC1)S(=O)(=O)c1cccc2nonc12)c1cc2ccccc2[nH]1]
Mean of 8 samples
  % Survival, mean: 81.6%
Trial 1, sample 1
  % Survival: 89%
Trial 1, sample 2
  % Survival: 94%
Trial 1, sample 3
  % Survival: 92%
Trial 1, sample 4
  % Survival: 90%
Trial 2, sample 1
  % Survival: 73%
Trial 2, sample 2
  % Survival: 76%
Trial 2, sample 3
  % Survival: 68%
Trial 2, sample 4
  % Survival: 70%
[1]
  viability at 15 µM: 84.2%
[2]
  viability at 15 µM: 87%
[3]
  viability at 15 µM: 96%
[4]
  viability at 15 µM: 92%
[5]
  viability at 15 µM: 90%
[6]
  viability at 15 µM: 76%
[7]
  viability at 15 µM: 73%
[8]
  viability at 15 µM: 78%
[9]
  viability at 15 µM: 82%

## O=C(c1nc(-c2ccc3cc[nH]c3c2)no1)N1CCN(c2nsc3ccccc23)CC1 [Compound 70, O=C(N1CCN(CC1)c1nsc2ccccc12)c1nc(no1)-c1ccc2cc[nH]c2c1]
Mean of 8 samples
  % Survival, mean: 47.0%
Trial 1, sample 1
  % Survival: 51%
Trial 1, sample 2
  % Survival: 55%
Trial 1, sample 3
  % Survival: 50%
Trial 1, sample 4
  % Survival: 54%
Trial 2, sample 1
  % Survival: 41%
Trial 2, sample 2
  % Survival: 36%
Trial 2, sample 3
  % Survival: 46%
Trial 2, sample 4
  % Survival: 43%
  Re-sensitization of DU145-TXR cells to PTX (reversal of MDR): re-sensitized DU145-TXR cells to PTX
[1]
  viability at 15 µM: 91.3%
[2]
  viability at 15 µM: 92%
[3]
  viability at 15 µM: 103%
[4]
  viability at 15 µM: 101%
[5]
  viability at 15 µM: 96%
[6]
  viability at 15 µM: 90%
[7]
  viability at 15 µM: 83%
[8]
  viability at 15 µM: 85%
[9]
  viability at 15 µM: 80%

## COc1ccc(OC)c(NC(=O)c2nnn(-c3ccc4noc(-c5ccccc5)c4c3)c2C)c1 [Compound 71, COc1ccc(OC)c(NC(=O)c2nnn(c2C)-c2ccc3noc(-c4ccccc4)c3c2)c1]
Mean of 8 samples
  % Survival, mean: 41.6%
Trial 1, sample 1
  % Survival: 48%
Trial 1, sample 2
  % Survival: 45%
Trial 1, sample 3
  % Survival: 45%
Trial 1, sample 4
  % Survival: 51%
Trial 2, sample 1
  % Survival: 33%
Trial 2, sample 2
  % Survival: 33%
Trial 2, sample 3
  % Survival: 36%
Trial 2, sample 4
  % Survival: 42%
[1]
  viability at 15 µM: 33.8%
[2]
  viability at 15 µM: 44%
[3]
  viability at 15 µM: 33%
[4]
  viability at 15 µM: 39%
[5]
  viability at 15 µM: 41%
[6]
  viability at 15 µM: 36%
[7]
  viability at 15 µM: 25%
[8]
  viability at 15 µM: 28%
[9]
  viability at 15 µM: 25%

## Cc1onc(-c2ccccc2)c1-c1nnc(Cn2cnc3c(oc4ccccc43)c2=O)o1 [Compound 78, Cc1onc(c1-c1nnc(Cn2cnc3c4ccccc4oc3c2=O)o1)-c1ccccc1]
Mean of 8 samples
  % Survival, mean: 40.6%
Trial 1, sample 1
  % Survival: 40%
Trial 1, sample 2
  % Survival: 45%
Trial 1, sample 3
  % Survival: 44%
Trial 1, sample 4
  % Survival: 45%
Trial 2, sample 1
  % Survival: 34%
Trial 2, sample 2
  % Survival: 40%
Trial 2, sample 3
  % Survival: 35%
Trial 2, sample 4
  % Survival: 41%
  Re-sensitization of DU145-TXR cells to PTX (reversal of MDR): re-sensitized DU145-TXR cells to PTX
[1]
  viability at 15 µM: 93.3%
[2]
  viability at 15 µM: 90%
[3]
  viability at 15 µM: 107%
[4]
  viability at 15 µM: 99%
[5]
  viability at 15 µM: 93%
[6]
  viability at 15 µM: 91%
[7]
  viability at 15 µM: 89%
[8]
  viability at 15 µM: 93%
[9]
  viability at 15 µM: 83%

## NS(=O)(=O)c1cccc(NC(=O)CSc2nnnn2C2CC2)c1 [Compound 89, NS(=O)(=O)c1cccc(NC(=O)CSc2nnnn2C2CC2)c1]
Mean of 8 samples
  % Survival, mean: 97.9%
Trial 1, sample 1
  % Survival: 108%
Trial 1, sample 2
  % Survival: 120%
Trial 1, sample 3
  % Survival: 99%
Trial 1, sample 4
  % Survival: 113%
Trial 2, sample 1
  % Survival: 85%
Trial 2, sample 2
  % Survival: 83%
Trial 2, sample 3
  % Survival: 88%
Trial 2, sample 4
  % Survival: 87%
  Re-sensitization of DU145-TXR cells to PTX (reversal of MDR): did not reverse MDR in DU145-TXR cells
[1]
  viability at 15 µM: 105%
[2]
  viability at 15 µM: 115%
[3]
  viability at 15 µM: 120%
[4]
  viability at 15 µM: 122%
[5]
  viability at 15 µM: 116%
[6]
  viability at 15 µM: 103%
[7]
  viability at 15 µM: 92%
[8]
  viability at 15 µM: 95%
[9]
  viability at 15 µM: 79%

— publication PMC12349723, “Computationally accelerated identification of P-glycoprotein inhibitors” (PLOS One, 2025)
